The record followed here is patent US12180207B2 (ARRAY BIOPHARMA INC., priority 2018, dated 2024).

The target of experiment [1] is recombinant human FGFR2 cytoplasmic domain (amino acids 403-822) (Homo sapiens (Human), UniProt P21802). Put plainly: FGFR2 enzyme activity assay (LanthaScreen TR-FRET). The experiment is classed as biochemical. The following applies: 15 μM ATP, 20 min incubation at 22° C., average of multiple determinations if made, read-out: FGFR2 Enz FRET IC50. Summed up: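 His-tagged FGFR2 cytoplasmic domain ([…]) with 100 nM Alexa Fluor 647-poly-GT peptide and 15 μM ATP in HEPES/MgCl2/Triton buffer, pH 7.5, 2% DMSO, 20 min at 22 °C. EDTA-quenched, Eu-PY20 antibody added, TR-FRET read after 60 min.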
Sequence of recombinant human FGFR2 cytoplasmic domain (amino acids 403-822) (P21802 402-821): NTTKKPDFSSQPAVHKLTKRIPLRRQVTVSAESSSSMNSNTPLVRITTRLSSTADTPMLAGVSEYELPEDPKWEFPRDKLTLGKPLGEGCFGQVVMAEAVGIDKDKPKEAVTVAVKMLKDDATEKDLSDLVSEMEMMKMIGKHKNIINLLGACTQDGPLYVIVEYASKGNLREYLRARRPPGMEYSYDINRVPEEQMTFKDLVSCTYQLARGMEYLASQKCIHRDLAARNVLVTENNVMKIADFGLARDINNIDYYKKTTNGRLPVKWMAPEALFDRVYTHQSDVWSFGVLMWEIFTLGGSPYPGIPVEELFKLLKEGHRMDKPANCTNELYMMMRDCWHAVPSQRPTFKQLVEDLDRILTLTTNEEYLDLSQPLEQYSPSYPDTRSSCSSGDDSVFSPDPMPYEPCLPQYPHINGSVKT

Experiment [2] addresses FGFR1 (SEQ ID NO: 1, amino acids 458-765) (Homo sapiens (Human), UniProt P11362). Put plainly: LC/MS FGFR1 kobs assay (covalent protein modification). The class given is binding. The settings on record: 500 nM FGFR1, 3 μM compound. Summed up: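 Covalent labeling of FGFR1 kinase domain (aa 458-765) tracked over time by intact-protein LC/MS after formic acid quench. kobs derived by fitting DMSO-normalized percent unmodified FGFR1 to an exponential decay model.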

The target in experiment [3] is dephosphorylated FGFR1 (SEQ ID NO: 1, amino acids 458 to 765) (Homo sapiens (Human), UniProt P11362). The experiment is described as follows: FGFR enzyme binding assay (HTRF tracer displacement), FGFR1. The following applies: 5 nM dephosphorylated FGFR1, average of multiple determinations if made. Put shortly:
(§1)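 Compounds were tested for displacement of a tracer from human FGFR kinase in a time-resolved FRET binding format. After 60 minutes at 22° C, signal was read at two wavelengths and converted to percent of control, normalised between untreated wells and 1 μM reference inhibitor.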

Experiment [4] has as its target FGFR3 (SEQ ID NO: 5, amino acids 449-759) (Homo sapiens (Human), UniProt P22607). The experiment is described as follows: LC/MS FGFR3 kobs assay (covalent protein modification). The class given is binding. The following applies: 500 nM FGFR3, 3 μM compound. Put shortly: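 Timed reactions were stopped with 0.4% formic acid, and covalent adduct formation was measured by LC/MS on a Q-TOF with deconvolution of protein masses. Modified signal was normalized to DMSO-control unmodified protein at each time point; percent unmodified protein was fit to exponential decay to give kobs.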

The target in experiment [5] is phosphorylated FGFR3 (SEQ ID NO: 5, amino acids 449 to 759) (Homo sapiens (Human), UniProt P22607). The experiment is described as follows: FGFR enzyme binding assay (HTRF tracer displacement), FGFR3. The settings on record: 5 nM phosphorylated FGFR3, average of multiple determinations if made. Summed up:
as §1

Sequence of phosphorylated FGFR3 (SEQ ID NO: 5, amino acids 449 to 759) (P22607 449-759): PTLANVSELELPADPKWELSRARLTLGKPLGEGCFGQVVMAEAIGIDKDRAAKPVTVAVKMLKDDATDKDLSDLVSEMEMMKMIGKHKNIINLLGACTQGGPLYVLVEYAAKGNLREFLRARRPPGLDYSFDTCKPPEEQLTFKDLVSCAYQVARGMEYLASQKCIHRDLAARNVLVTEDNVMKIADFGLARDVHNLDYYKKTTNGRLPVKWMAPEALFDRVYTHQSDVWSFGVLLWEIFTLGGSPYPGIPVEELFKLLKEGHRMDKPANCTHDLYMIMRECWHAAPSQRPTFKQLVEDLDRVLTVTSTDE
Sequence of FGFR3 (SEQ ID NO: 5, amino acids 449-759) (P22607 449-759): as above
Sequence of FGFR1 (SEQ ID NO: 1, amino acids 458-765) (P11362 458-765): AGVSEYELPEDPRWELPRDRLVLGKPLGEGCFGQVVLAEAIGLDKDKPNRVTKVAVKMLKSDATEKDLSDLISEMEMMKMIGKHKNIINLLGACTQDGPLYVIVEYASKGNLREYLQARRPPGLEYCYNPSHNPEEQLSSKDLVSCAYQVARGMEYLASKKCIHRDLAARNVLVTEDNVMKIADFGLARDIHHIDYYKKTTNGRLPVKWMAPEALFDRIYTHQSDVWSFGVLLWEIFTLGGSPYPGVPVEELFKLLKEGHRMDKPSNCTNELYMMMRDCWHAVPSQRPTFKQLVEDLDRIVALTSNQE
Sequence of dephosphorylated FGFR1 (SEQ ID NO: 1, amino acids 458 to 765) (P11362 458-765): as above

`C=CC(=O)N1CC2(CCN(C(=O)N3CCC(n4cc(-c5cc(OC)c6c(C#N)cnn6c5)cn4)CC3)CC2)C1` [Example 6, 6-(1-(1-(2-acryloyl-2,7-diazaspiro[3.5]nonane-7-carbonyl)piperidin-4-yl)-1H-pyrazol-4-yl)-4-methoxypyrazolo[1,5-a]pyridine-3-carbonitrile]: the half-maximal inhibitory concentration (IC50) in experiment [1] turned out to be 4 nM; in experiment [3] it was 157 nM; in experiment [5], 18 nM. Also, the “FGFR1 Enz kobs” value in experiment [2] was found to be 0.00093 min⁻¹. Further, in experiment [4], the “FGFR3 Enz kobs” value stood at 0.00902 min⁻¹.
Consider `C=CC(=O)N1C[C@H]2CN(C(=O)N3CCC(n4cc(-c5cc(OC)c6c(C#N)cnn6c5)cn4)CC3)C[C@H]21` [Example 7, 6-(1-(1-((1S,5S)-6-acryloyl-3,6-diazabicyclo[3.2.0]heptane-3-carbonyl)piperidin-4-yl)-1H-pyrazol-4-yl)-4-methoxypyrazolo[1,5-a]pyridine-3-carbonitrile], for which the IC50 in experiment [1] worked out at 6 nM; in experiment [3] it was 52 nM; in experiment [5], 9 nM. In experiment [2], the “FGFR1 Enz kobs” value was determined as 0.00042 min⁻¹. Moreover, in experiment [4], the “FGFR3 Enz kobs” value was 0.00305 min⁻¹.
On to `C=CC(=O)N1CC2(CCN(C(=O)N3CCC(n4cc(-c5cc(OC)c6c(C#N)cnn6c5)cn4)CC3)C2)C1` [Example 8, 6-(1-(1-(2-acryloyl-2,6-diazaspiro[3.4]octane-6-carbonyl)piperidin-4-yl)-1H-pyrazol-4-yl)-4-methoxypyrazolo[1,5-a]pyridine-3-carbonitrile], for which the IC50 was found to be 7 nM in experiment [1], 73 nM in experiment [3] and 8 nM in experiment [5]. The “FGFR1 Enz kobs” value in experiment [2] was 0.00124 min⁻¹. In experiment [4], the “FGFR3 Enz kobs” value was 0.01122 min⁻¹.
On to `C=CC(=O)Nc1ccc(CN2CCC(n3cc(-c4cc(OC)c5c(C#N)cnn5c4)cn3)CC2)cc1` [Example 9, N-(4-((4-(4-(3-cyano-4-methoxypyrazolo[1,5-a]pyridin-6-yl)-1H-pyrazol-1-yl)piperidin-1-yl)methyl)phenyl)acrylamide], for which the IC50 was found to be 5 nM in experiment [1], 56 nM in experiment [3] and 5 nM in experiment [5]. The “FGFR1 Enz kobs” value in experiment [2] came out at 0.0059 min⁻¹. Moreover, the “FGFR3 Enz kobs” value in experiment [4] worked out at 0.02298 min⁻¹.
As to `C=CC(=O)N(C)c1ccc(CN2CCC(n3cc(-c4cc(OC)c5c(C#N)cnn5c4)cn3)CC2)cc1` [Example 10, N-(4-((4-(4-(3-cyano-4-methoxypyrazolo[1,5-a]pyridin-6-yl)-1H-pyrazol-1-yl)piperidin-1-yl)methyl)phenyl)-N-methylacrylamide], the results for the IC50 in experiment [1], in experiment [3] and in experiment [5] were 6 nM, 56 nM and 4 nM, respectively. Also, the “FGFR1 Enz kobs” value in experiment [2] was found to be 0.0034 min⁻¹. The “FGFR3 Enz kobs” value in experiment [4] was 0.01566 min⁻¹.
On to `C=CC(=O)N1CCC(n2cc(-c3cc(OC)c4c(C#N)cnn4c3)cn2)CC1` [Example 11, 6-(1-(1-acryloylpiperidin-4-yl)-1H-pyrazol-4-yl)-4-methoxypyrazolo[1,5-a]pyridine-3-carbonitrile], for which the 50% inhibitory concentration (IC50) amounted to 7 nM in experiment [1], 210 nM in experiment [3] and 25 nM in experiment [5]. Besides, the “FGFR1 Enz kobs” value in experiment [2] was 0.0002 min⁻¹. In addition, the “FGFR3 Enz kobs” value in experiment [4] was 0.00206 min⁻¹.
The like results for `C=CC(=O)N1CCC(F)(C(=O)N2CCC(n3cc(-c4cc(OC)c5c(C#N)cnn5c4)cn3)CC2)CC1` [Example 13, 6-(1-(1-(1-acryloyl-4-fluoropiperidine-4-carbonyl)piperidin-4-yl)-1H-pyrazol-4-yl)-4-methoxypyrazolo[1,5-a]pyridine-3-carbonitrile] were, in that order, 2 nM, 245 nM, 39 nM, 0.00056 min⁻¹ and 0.00418 min⁻¹.
The like results for `C=CC(=O)N1CC(C(=O)N2CCC(n3cc(-c4cc(OC)c5c(C#N)cnn5c4)c(CC)n3)CC2)C1` [Example 97, 6-(1-(1-(1-acryloylazetidine-3-carbonyl)piperidin-4-yl)-3-ethyl-1H-pyrazol-4-yl)-4-methoxypyrazolo[1,5-a]pyridine-3-carbonitrile] were, in that order, 38 nM, 572 nM, 53 nM, 0.00276 min⁻¹ and 0.01865 min⁻¹.
The like results for `C=CC(=O)N1CC(C(=O)N2CCC(n3cnc(-c4cc(OC)c5c(C#N)cnn5c4)c3)CC2)C1` [Example 98, 6-(1-(1-(1-acryloylazetidine-3-carbonyl)piperidin-4-yl)-1H-imidazol-4-yl)-4-methoxypyrazolo[1,5-a]pyridine-3-carbonitrile] were, in that order, 6 nM, 218 nM, 19 nM, 0.00167 min⁻¹ and 0.01995 min⁻¹.
`C=CC(=O)N1CC(C(=O)N2CCC(c3ccc(-c4cc(OC)c5c(C#N)cnn5c4)cc3)CC2)C1` [Example 101, 6-(4-(1-(1-acryloylazetidine-3-carbonyl)piperidin-4-yl)phenyl)-4-methoxypyrazolo[1,5-a]pyridine-3-carbonitrile]: the half-inhibitory concentration (IC50) was 3 nM in experiment [1], 42 nM in experiment [3] and 3 nM in experiment [5]. Further, in experiment [2], the “FGFR1 Enz kobs” value is 0.00223 min⁻¹. Also, in experiment [4], the “FGFR3 Enz kobs” value worked out at 0.01185 min⁻¹.
In the case of `C=CC(=O)N1CC(C)(C(=O)N2CCC(n3cc(-c4cc(OC)c5c(Cl)cnn5c4)cn3)CC2)C1` [Example 123, 1-(3-(4-(4-(3-chloro-4-methoxypyrazolo[1,5-a]pyridin-6-yl)-1H-pyrazol-1-yl)piperidine-1-carbonyl)-3-methylazetidin-1-yl)prop-2-en-1-one], the results for the half-inhibitory concentration (IC50) in experiment [1], in experiment [3] and in experiment [5] were 13 nM, 221 nM and 22 nM, respectively. In addition, the “FGFR1 Enz kobs” value in experiment [2] stood at 0.00126 min⁻¹. Moreover, the “FGFR3 Enz kobs” value in experiment [4] turned out to be 0.01169 min⁻¹.
The like results for `C=CC(=O)N1CC(OC)(C(=O)N2CCC(n3cc(-c4cc(OC)c5c(Cl)cnn5c4)cn3)CC2)C1` [Example 124, 1-(3-(4-(4-(3-chloro-4-methoxypyrazolo[1,5-a]pyridin-6-yl)-1H-pyrazol-1-yl)piperidine-1-carbonyl)-3-methoxyazetidin-1-yl)prop-2-en-1-one] were, in that order, 17 nM, 119 nM, 9 nM, 0.00241 min⁻¹ and 0.02484 min⁻¹.
The like results for `C=CC(=O)N1CC(C(=O)N2CCC(n3cc(-c4cc(OC5CCC5)c5c(C#N)cnn5c4)cn3)CC2)C1` [Example 125, 6-(1-(1-(1-acryloylazetidine-3-carbonyl)piperidin-4-yl)-1H-pyrazol-4-yl)-4-cyclobutoxypyrazolo[1,5-a]pyridine-3-carbonitrile] were, in that order, 3 nM, 13 nM, 2 nM, 0.00246 min⁻¹ and 0.01842 min⁻¹.
The like results for `C=CC(=O)N1CC(C(=O)N2CCC(n3cc(-c4cc(OCC)c5c(C#N)cnn5c4)cn3)CC2)C1` [Example 126, 6-(1-(1-(1-acryloylazetidine-3-carbonyl)piperidin-4-yl)-1H-pyrazol-4-yl)-4-ethoxypyrazolo[1,5-a]pyridine-3-carbonitrile] were, in that order, 6 nM, 147 nM, 11 nM, 0.0028 min⁻¹ and 0.01992 min⁻¹.
With `C=CC(=O)N1CC(C(=O)N2CCC(n3cc(-c4cc(OC(C)C)c5c(C#N)cnn5c4)cn3)CC2)C1` [Example 127, 6-(1-(1-(1-acryloylazetidine-3-carbonyl)piperidin-4-yl)-1H-pyrazol-4-yl)-4-isopropoxypyrazolo[1,5-a]pyridine-3-carbonitrile], the IC50 in experiment [1] came out at 5 nM; in experiment [3], 59 nM; in experiment [5], 10 nM. Moreover, in experiment [2], the “FGFR1 Enz kobs” value turned out to be 0.00133 min⁻¹. Moreover, the “FGFR3 Enz kobs” value in experiment [4] came to 0.01654 min⁻¹.
In the same order, the values of `C=CC(=O)N1CC(C(=O)N2CCC(n3cc(-c4cc(OCC(C)C)c5c(C#N)cnn5c4)cn3)CC2)C1` [Example 128, 6-(1-(1-(1-acryloylazetidine-3-carbonyl)piperidin-4-yl)-1H-pyrazol-4-yl)-4-isobutoxypyrazolo[1,5-a]pyridine-3-carbonitrile] are 5 nM, 38 nM, 6 nM, 0.00134 min⁻¹ and 0.01702 min⁻¹.
